Experimental data taken from patent US4428943A, “(N-Phosphonacetyl-L-aspartato) (1,2-diaminocyclohexane)platinum(II) or alkali metal salt” (priority 1981, dated 1984).

Tests used:
L1210 leukemia = test: Survival of mice bearing L1210 leukemia, Pt-268 alone (LD50, optimal dose, therapeutic safety ratio); type: in vivo, mice (BDF1)
Procedure: Mice received 10^6 L1210 cells on Day 0 via intraperitoneal route. Pt-268 was given intraperitoneally on Day 1 only in 5% glucose solution.
Mice received 10^6 L1210 cells on Day 0 via intraperitoneal route. Pt-268 was given intraperitoneally on Days 1, 5, and 9 in 5% glucose solution.
The BDF1 mice received 10^6 L1210 leukemia cells by I.P. injection on Day 0 and were divided into groups of 10, including a control group of 40 mice. The treated groups were treated on Day 1 only at different dose levels from 10 mg/kg to 200 mg/kg or treated on Days 1, 5, and 9 at dose levels from 2.5 mg/kg to 50 mg/kg.

L1210 cells = test: Combination of Pt-268 with cisplatin in mice bearing L1210 leukemia (FIG. 4); type: in vivo, BDF1 mice; conditions: 5 mg/kg on Day 3, alone
Procedure: Mice were given an inoculum of 10^6 L1210 cells.
With reference to FIG. 4, BDF1 mice were given an inoculum of 10^6 L1210 cells. On Day 3, one grop received NSC-314926, 5 mg/kg. […] Another group received the two drugs in combination on the same schedule.

[1] = test system: Ehrlich ascites carcinoma; test: Survival times of BDF1 mice bearing the Ehrlich ascites carcinoma; type: in vivo; conditions: Day 1 only; for T/C × 100: treated/control survival time
Description: In addition to testing with L1210 leukemia, satisfactory responses against tests by additional animal cancer organisms have been shown as, for example, Ehrlich ascites tumor, melanoma B-16 and Colon 38. Testing was achieved using either the alkali metal (sodium) salt or the free acid.
Mice received an intraperitoneal inoculation of 10^7 tumor cells on Day 0; treatment was by the intraperitoneal route on Day 1 only. NSC-314926 [N-phosphonacetyl-L-aspartato(1,2-diaminocyclohexane)platinum(II)] was dissolved in 5% dextrose solution. There were 10 mice per group.

Solubility [2] = type: physicochemical
Procedure: One ml of each of the following solvents dissolved approximately 2 mg of Pt-268: […]

Solubility [3] = type: physicochemical; remark: listed apart in the source

Question: For “N-phosphonacetyl-L-aspartato(1,2-diaminocyclohexane)platinum(II), Na [Pt-268]”, which “therapeutic safety ratio (LD50/OptD50)” value (L1210 leukemia; I.P. LD50 / I.P. dose which is 50% of the optimal therapeutic dose) is on record?
Answer: 4.5

Question: What about the optimal therapeutic dose (L1210 leukemia; L1210, I.P., Day 1 only, 5% glucose) of the same substance?
Answer: approximately 80 mg/kg

Question: What about the optimal dose (L1210 leukemia; L1210, I.P., Days 1, 5, and 9, 5% glucose) of the same substance?
Answer: approximately 20 mg/kg

Question: What about the LD50 (L1210 leukemia; tumored BDF1 mice (10^6 L1210 cells I.P.)) of the same substance?
Answer: 180 mg/kg

Question: What about the “effect on median life span, single agent” value (L1210 cells) of the same substance?
Answer: hardly effective

Question: And the “Survival Time” value ([1]; 5 mg/kg I.P.)?
Answer: 16.5 days

Question: What about the “T/C × 100” value ([1]; 5 mg/kg I.P.) of the same substance?
Answer: 123

Question: What about the “Survival Time” value ([1]; 10 mg/kg I.P.) of the same substance?
Answer: 18.8 days

Question: What about the “T/C × 100” value ([1]; 10 mg/kg I.P.) of the same substance?
Answer: 140

Question: And the “Survival Time” value ([1]; 20 mg/kg I.P.)?
Answer: 24.3 days

Question: And the “T/C × 100” value ([1]; 20 mg/kg I.P.)?
Answer: 181

Question: What about the “Survival Time” value ([1]; 40 mg/kg I.P.) of the same substance?
Answer: 25.3 days

Question: And the “T/C × 100” value ([1]; 40 mg/kg I.P.)?
Answer: 189

Question: And the “Survival Time” value ([1]; 60 mg/kg I.P.)?
Answer: 28.8 days

Question: What about the “T/C × 100” value ([1]; 60 mg/kg I.P.) of the same substance?
Answer: 215

Question: What about the “Survival Time” value ([1]; 80 mg/kg I.P.) of the same substance?
Answer: 29.0 days

Question: What about the “T/C × 100” value ([1]; 80 mg/kg I.P.) of the same substance?
Answer: 216

Question: And the “Survival Time” value ([1]; 100 mg/kg I.P.)?
Answer: 31.7 days

Question: And the “T/C × 100” value ([1]; 100 mg/kg I.P.)?
Answer: 237

Question: What about the “Solubility of a 2-mg sample” value (Solubility [2]; CHCl3) of the same substance?
Answer: very slightly soluble or insoluble

Question: What about the “Solubility of a 2-mg sample” value (Solubility [2]; acetone) of the same substance?
Answer: very slightly soluble or insoluble

Question: And the “Solubility of a 2-mg sample” value (Solubility [2]; cyclopentanone)?
Answer: very slightly soluble or insoluble

Question: And the “Solubility of a 2-mg sample” value (Solubility [2]; dimethylformamide)?
Answer: very slightly soluble or insoluble

Question: And the “Solubility of a 2-mg sample” value (Solubility [2]; dimethylsulfoxide)?
Answer: very slightly soluble or insoluble

Question: And the “Solubility of a 2-mg sample” value (Solubility [2]; ethanol)?
Answer: very slightly soluble or insoluble

Question: What about the “Solubility of a 2-mg sample” value (Solubility [2]; heptane) of the same substance?
Answer: very slightly soluble or insoluble

Question: And the “Solubility of a 2-mg sample” value (Solubility [2]; t-butanol)?
Answer: very slightly soluble or insoluble

Question: And the “Solubility of a 2-mg sample” value (Solubility [2]; tetrahydrofuran)?
Answer: very slightly soluble or insoluble

Question: And the “Solubility in CH3OH” value (Solubility [3]; CH3OH)?
Answer: ~ 0.2 mg/ml

Question: And the Solubility in water (Solubility [3]; water)?
Answer: ~ 175 mg/ml
